Data reported in patent US11692227B2, “Method for screening for skin whitening agent by using SDF1 promoter region” (AJOU UNIVERSITY INDUSTRY-ACADEMIC COOPERATION FOUNDATION, priority 2018, dated 2023).

Tested on: SDF1 promoter
Assay: Screening of pigment regulators using SDF1 promoter (pGF1 reporter fibroblast cell line, Luciferase assay)
Assay type: cell-based
Details: fibroblasts infected with SDF1 promoter pGF1 vector virus; 1 ug TPA; 1 ug and 10 ug retinoic acid; 24 hours after treatment
Text: In order to express the SDF1 promoter gene, the SDF1 promoter gene was inserted into pGF1-vector to construct the SDF1 promoter GFP vector. In order to produce the virus into which the constructed vector was inserted, a virus production system of lentivirus was used. PVSV-G (SystemBiosciences, USA) encoding the required structural protein, the pGF1 vector into which the SDF1 promoter gene was inserted, and pGag-pol were simultaneously co-transfected into HEK-293TN cells by a liposome method. After 6 hours, the medium was replaced with a new medium, cultured for 48 hours, and the medium containing the virus was harvested, and the harvested virus was used for fibroblasts infection. As for the infected fibroblasts, only cells infected by Puromycin were selected for the experiment.
In order to confirm the expression of the prepared SDF1 promoter, Luciferase assay, an experiment that can confirm the level of GFP, was conducted to observe the expression level.
Cells were cultured in 12 well plates in an amount of 1×10^3, and after 24 hours, 1 ug of TPA, 10 ng and 100 ng of EGF, and 1 ug and 10 ug of retinoic acid were treated, respectively. 24 hours after treatment with the drug, the activity of GFP was measured through Luciferase assay.

CCCCCCCCCCCCCC(=O)O[C@@H]1[C@@H](C)[C@@]2(O)[C@@H](C=C(CO)C[C@]3(O)C(=O)C(C)=C[C@@H]23)[C@@H]2C(C)(C)[C@]12OC(C)=O [TPA]
SDF1 promoter activity (activity of GFP measured through Luciferase assay): decreased
